# In US20100203634A1, “Inhibition of stem cell differentiation, enhancement of proliferation and selective induction of apoptosis by Wnt factors” (DeltaCell B.V., priority 2003, published 2010):
# “Also recorded” adds a separate entry of the source.
# Tested on: fetal lung explants (E12.5)
# Test: Expression profiling of lung explants, Affymetrix MOE430AB microarray
# Assay type: cell-based, mouse
# Experimental: To further investigate the effect of Wnt3A inhibition on lung differentiation, we analyzed the expression profiles of Wnt3A-treated lung explants with microarray analysis using the Affymetrix chip set MOE430AB, containing the complete mouse transcriptome. The lung explants, per condition, ten complete fetal lungs isolated from E12.5 embryos, were treated for four hours with 0 and 250 ng/ml Wnt3A (Wnt0/4 hr and Wnt250/4 hr, respectively), and for 24 hours with 0, 10, 50 and 250 ng/ml Wnt3A ([…], […], Wnt50/24 hr, Wnt250/24 hr, respectively). The 60 lung explants were isolated together from six pregnant Swiss mice and randomly distributed over the six different conditions.
# After the indicated time period, total RNA was isolated, which was processed for the synthesis of a probe for hybridization onto the MOE-430AB chip sets. […] A rapid response was observed when the lungs were treated for four hours with 250 ng/ml Wnt3A.
# [1] = 250 ng/ml, four hours, versus 0 ng/ml four hours
# [2] = 24 hours, "the ng/ml wnt3a-treated group"
substance,measurement,setting,value
Wnt3a,changes in gene expression,"10 ng/ml, 24 hours",capable of inducing significant changes in gene expression
same,down-regulated genes,"50 ng/ml, 24 hours",92 genes
same,up-regulated genes,"50 ng/ml, 24 hours",95 genes
same,genes whose four-hour profile is opposite from the 24-hour Wnt3A-treated profiles,250 ng/ml four hours versus 24-hour groups,circa 75%
same,"down-regulated genes, more than two-fold","250 ng/ml, 24 hours",152 genes
same,"up-regulated genes, more than two-fold","250 ng/ml, 24 hours",195 genes
same,"down-regulated genes, more than two-fold",[1],1165 genes
same,"up-regulated genes, more than two-fold",[1],446 genes
same,cluster analysis of expression profiles of 4500 genes: effect on differentiation,"10, 50 and 250 ng/ml, 24 hours","inhibits, at least partially, the differentiation of fetal lung tissue; also recorded: inhibits lung differentiation and development"
same,"down-regulated genes, more than two-fold",[2],223 genes
same,"up-regulated genes, more than two-fold",[2],209 genes
